This assay has as its target T1, full-length human PKCι (Homo sapiens, UniProt P41743).
T1 construct: Recombinant, full-length human PKCι expressed in Sf21 insect cells is also commercially available; purchased; host or cells: Sf21 insect cells
T1 sequence (P41743 1-596): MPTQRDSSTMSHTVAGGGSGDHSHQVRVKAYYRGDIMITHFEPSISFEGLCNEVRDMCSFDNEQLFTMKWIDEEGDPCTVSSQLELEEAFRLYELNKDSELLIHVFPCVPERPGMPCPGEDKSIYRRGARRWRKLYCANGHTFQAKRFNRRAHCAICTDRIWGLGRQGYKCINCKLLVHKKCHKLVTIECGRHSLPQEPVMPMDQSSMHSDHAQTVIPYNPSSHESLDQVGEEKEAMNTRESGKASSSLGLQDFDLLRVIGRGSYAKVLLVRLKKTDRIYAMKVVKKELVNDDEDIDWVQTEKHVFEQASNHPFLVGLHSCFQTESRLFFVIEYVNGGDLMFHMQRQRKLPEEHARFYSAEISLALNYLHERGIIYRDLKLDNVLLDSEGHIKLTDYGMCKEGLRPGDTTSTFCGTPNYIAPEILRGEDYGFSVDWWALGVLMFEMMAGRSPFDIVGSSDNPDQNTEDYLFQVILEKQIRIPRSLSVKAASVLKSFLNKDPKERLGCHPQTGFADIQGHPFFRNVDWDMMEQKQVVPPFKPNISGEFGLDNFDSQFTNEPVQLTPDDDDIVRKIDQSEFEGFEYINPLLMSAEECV
The assay is described as follows: PKCι IC50 IMAP assay, full-length PKCι at 150 μM ATP. In kind it is biochemical. Conditions: read-out: IC50 in IMAP assay against full length PKCi at 150 μM ATP. The method, boiled down:
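Phosphorylation of a 5FAM-tagged PKCε pseudopeptide-derived substrate (100 nM) by full-length recombinant human PKCι was monitored by IMAP fluorescence polarisation. ATP was held at 150 μM, five times its apparent KM, with 60 min room-temperature incubation.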

Here are results for 28 compounds from US9914730B2, “Azaquinazoline inhibitors of Atypical protein Kinase C” (Ignyta, Inc., priority 2012, dated 2018).

Bounds are passed on as bounds.

Regarding `c1cc(-c2nc(N3CCNCC3)c3c(C4CCC4)cncc3n2)c2cc(C3CCC3)[nH]c2n1` [Example 2147, 5-Cyclobutyl-2-(2-cyclobutyl-1H-pyrrolo[2,3-b]pyridin-4-yl)-4-piperazin-1-yl-pyrido[3,4-d]pyrimidine], the IC50 was below 100 nM.
With `Cn1cnc(Nc2cc(-c3nc(N4CCNCC4)c4c(C5CC5)cncc4n3)ccn2)c1` [Example 605, [4-(5-Cyclopropyl-4-piperazin-1-yl-pyrido[3,4-d]pyrimidin-2-yl)-pyridin-2-yl]-(1-methyl-1H-imidazol-4-yl)-amine], the half-maximal inhibitory concentration (IC50) is below 100 nM.
In the case of `Cc1cc(F)c(Nc2cc(-c3nc(N4CCNCC4)c4c(C5CC5)cncc4n3)ccn2)c(F)c1` [Example 604, [4-(5-Cyclopropyl-4-piperazin-1-yl-pyrido[3,4-d]pyrimidin-2-yl)-pyridin-2-yl]-(2,6-difluoro-4-methyl-phenyl)-amine], the 50% inhibitory concentration (IC50) is below 100 nM.
With `CN1CCN(c2cccc(Nc3cc(-c4nc(N5CCC[C@@H](O)C5)c5c(C6CC6)cncc5n4)ccn3)c2)CC1` [Example 720, (R)-1-(5-Cyclopropyl-2-{2-[3-(4-methyl-piperazin-1-yl)-phenylamino]-pyridin-4-yl}-pyrido[3,4-d]pyrimidin-4-yl)-piperidin-3-ol], the IC50 is below 100 nM.
For `COc1cncc2nc(-c3ccnc(Nc4cccnc4F)c3)nc(N3CCNCC3)c12` [Example 450, (2-Fluoro-pyridin-3-yl)-[4-(5-methoxy-4-piperazin-1-yl-pyrido[3,4-d]pyrimidin-2-yl)-pyridin-2-yl]-amine], the IC50 is below 100 nM.
On to `CNc1cc(-c2nc(N3CCNCC3)c3c(OC)cncc3n2)ccn1` [Example 213, [4-(5-Methoxy-4-piperazin-1-yl-pyrido[3,4-d]pyrimidin-2-yl)-pyridin-2-yl]-methyl-amine], for which the concentration for half-maximal inhibition (IC50) lay in the range of 100 to 1000 nM.
On to `FC(F)(F)Cn1ccc(Nc2cc(-c3nc(N4CCNCC4)c4c(C5CC5)cncc4n3)ccn2)n1` [Example 2016, [4-(5-Cyclopropyl-4-piperazin-1-yl-pyrido[3,4-d]pyrimidin-2-yl)-pyridin-2-yl]-[1-(2,2,2-trifluoro-ethyl)-1H-pyrazol-3-yl]-amine], for which the IC50 was below 100 nM.
Regarding `COc1ccc(F)c(Nc2cc(-c3nc(N4CCNCC4)c4c(C5CC5)cncc4n3)ccn2)n1` [Example 762, [4-(5-Cyclopropyl-4-piperazin-1-yl-pyrido[3,4-d]pyrimidin-2-yl)-pyridin-2-yl]-(3-fluoro-6-methoxy-pyridin-2-yl)-amine], the IC50 is below 100 nM.
As to `FC1(c2cc3c(-c4nc(N5CCNCC5)c5c(C6CC6)cncc5n4)ccnc3[nH]2)CC1` [Example 2127, 5-Cyclopropyl-2-[2-(1-fluoro-cyclopropyl)-1H-pyrrolo[2,3-b]pyridin-4-yl]-4-piperazin-1-yl-pyrido[3,4-d]pyrimidine], the half-maximal inhibitory concentration (IC50) was below 100 nM.
With `c1cc(-c2nc(N3CCNCC3)c3c(C4CC4)cncc3n2)cc(NCC2CC2)n1` [Example 629, Cyclopropyl-methyl-[4-(5-cyclopropyl - 4-piperazin-1-yl-pyrido[3,4-d]pyrimidin-2-yl)-pyridin-2-yl]-amine], the half-maximal inhibitory concentration (IC50) was below 100 nM.
As to `C[C@@H](Nc1cc(-c2nc(N3CCNC(C)(C)C3)c3c(C4CC4)cncc3n2)ccn1)C1CCCCC1` [Example 835, ((R)-1-Cyclohexyl-ethyl)-{4-[5-cyclopropyl-4-(3,3-dimethyl-piperazin-1-yl)-pyrido[3,4-d]pyrimidin-2-yl]-pyridin-2-yl}-amine], the IC50 is below 100 nM.
In the case of `COCC(C)(C)c1cc2c(-c3nc(N4CCNCC4)c4c(C5CCC5)cncc4n3)ccnc2[nH]1` [Example 2109, 5-Cyclobutyl-2-[2-(2-methoxy-1,1-dimethyl-ethyl)-1H-pyrrolo[2,3-b]pyridin-4-yl]-4-piperazin-1-yl-pyrido[3,4-d]pyrimidine], the IC50 was below 100 nM.
As for `C[C@@H](N)CNc1nc(-c2ccncc2)nc2cnccc12` [Example 4, N-[(2R)-2-aminopropyl)-2-(pyridin-4-yl)pyrido[3,4-d]-pyrimidin-4-amine], the 50% inhibitory concentration (IC50) lay in the range of 1000 to 10000 nM.
`Fc1cccc(F)c1Nc1cc(-c2nc(NC3CCNCC3)c3c(C4CC4)cncc3n2)ccn1` [Example 790, {5-Cyclopropyl-2-[2-(2,6-difluoro-phenylamino)-pyridin-4-yl]-pyrido[3,4-d]pyrimidin-4-yl}-piperidin-4-yl-amine]: the IC50 was below 100 nM.
The result for `COc1cncc2nc(-c3ccnc(Nc4ccccc4)c3)nc(N3CC(CO)C3)c12` [Example 433, {1-[5-Methoxy-2-(2-phenylamino-pyridin-4-yl)-pyrido[3,4-d]pyrimidin-4-yl]-azetidin-3-yl}-methanol] reads 1000 to 10000 nM.
The result for `Fc1ccc(Nc2cc(-c3nc(N4CCNCC4)c4c(Cl)cncc4n3)ccn2)c(F)c1` [Example 255, [4-(5-Chloro-4-piperazin-1-yl-pyrido[3,4-d]pyrimidin-2-yl)-pyridin-2-yl]-(2,4-difluoro-phenyl)-amine] reads 100 to 1000 nM.
In the case of `c1ccc(-c2ccc(Nc3cc(-c4nc(N[C@@H]5CCNC5)c5ccncc5n4)ccn3)nc2)cc1` [Example 318, {2-[2-(5-Phenyl-pyridin-2-ylamino)-pyridin-4-yl]-pyrido[3,4-d]pyrimidin-4-yl}-(R)-pyrrolidin-3-yl-amine], the IC50 was below 100 nM.
As for `CN(C)CCCCNc1nc(-c2ccnc(Nc3c(F)cccc3F)c2)nc2cncc(C3CC3)c12` [Example 803, N-{5-Cyclopropyl-2-[2-(2,6-difluoro-phenylamino)-pyridin-4-yl]-pyrido[3,4-d]pyrimidin-4-yl}-N′,N′-dimethyl-butane-1,4-diamine], the IC50 lay within 100 to 1000 nM.
Regarding `CS(=O)(=O)C[C@H]1CN(c2nc(-c3ccnc(Nc4ccc(F)cc4)c3)nc3cncc(C4CC4)c23)CCN1` [Example 771, {4-[5-Cyclopropyl-4-((R)-3-methanesulfonyl-methyl-piperazin-1-yl)-pyrido[3,4-d]pyrimidin-2-yl]-pyridin-2-yl}-(4-fluoro-phenyl)-amine], the half-maximal inhibitory concentration (IC50) lay in the range of 1000 to 10000 nM.
`FC(F)(F)c1nc2cc(Nc3cc(-c4nc(N5CCNCC5)c5c(C6CC6)cncc5n4)ccn3)ccc2o1` [Example 2133, [4-(5-Cyclopropyl-4-piperazin-1-yl-pyrido[3,4-d]pyrimidin-2-yl)-pyridin-2-yl]-(2-trifluoromethyl-benzooxazol-5-yl)-amine]: the IC50 is below 100 nM.
For `O=C(Cc1c(F)cccc1F)Nc1cc(-c2nc(N3CCNCC3)c3c(C4CC4)cncc3n2)ccn1` [Example 639, N-[4-(5-Cyclopropyl-4-piperazin-1-yl-pyrido[3,4-d]pyrimidin-2-yl)-pyridin-2-yl]-2-(2,6-difluoro-phenyl)-acetamide] the value was below 100 nM.
In the case of `OC[C@H](Nc1cc(-c2nc(N3CCNCC3)c3c(C4CC4)cncc3n2)ccn1)c1ccccc1` [Example 2159, (R)-2-[4-(5-Cyclopropyl-4-piperazin-1-yl-pyrido[3,4-d]pyrimidin-2-yl)-pyridin-2-ylamino]-2-phenyl-ethanol], the IC50 lay within 100 to 1000 nM.
As to `Fc1cccc2nc(Nc3cc(-c4nc(N5CCNCC5)c5c(C6CC6)cncc5n4)ccn3)nn12` [Example 2041, [4-(5-Cyclopropyl-4-piperazin-1-yl-pyrido[3,4-d]pyrimidin-2-yl)-pyridin-2-yl]-(5-fluoro-[1,2,4]triazolo[1,5-a]pyridin-2-yl)-amine], the half-inhibitory concentration (IC50) is below 100 nM.
The result for `COc1ccc(C)c(Nc2cc(-c3nc(N4CCNCC4)c4c(C5CC5)cncc4n3)ccn2)c1` [Example 553, [4-(5-Cyclopropyl-4-piperazin-1-yl-pyrido[3,4-d]pyrimidin-2-yl)-pyridin-2-yl]-{5-methoxy-2-methyl-phenyl)-amine] reads below 100 nM; that for `N#Cc1ccnc(Nc2cc(-c3nc(N4CCNCC4)c4c(C5CC5)cncc4n3)ccn2)c1` [Example 265, 2-[4-(5-Cyclopropyl-4-piperazin-1-yl-pyrido[3,4-d]pyrimidin-2-yl)-pyridin-2-ylamino]-isonicotinonitrile], below 100 nM; that for `FC1(F)CCC(Nc2cc(-c3nc(N4CCNCC4)c4c(C5CC5)cncc4n3)ccn2)C1` (stereo not shown) [Example 621, [4-(5-Cyclopropyl-4-piperazin-1-yl-pyrido[3,4-d]pyrimidin-2-yl)-pyridin-2-yl]-(3,3-difluoro-cyclopentyl)-amine], below 100 nM.
For `CN(c1nc(-c2ccnc(Nc3ncc(F)cc3F)c2)nc2cncc(C3CC3)c12)C1CCNCC1` [Example 2095, {5-Cyclopropyl-2-[2-(3,5-difluoro-pyridin-2-ylamino)-pyridin-4-yl]-pyrido[3,4-d]pyrimidin-4-yl}-methyl-piperidin-4-yl-amine] the value was below 100 nM; for `CC1(C)CC(Nc2cc(-c3nc(N4CCNCC4)c4c(C5CC5)cncc4n3)ccn2)c2ccccc21` (stereo not shown) [Example 2177, [4-(5-Cyclopropyl-4-piperazin-1-yl-pyrido[3,4-d]pyrimidin-2-yl)-pyridin-2-yl]-(3,3-dimethyl-indan-1-yl)-amine], below 100 nM.

As a reminder, the IC50 is the concentration needed to halve the response being measured.
